According to BigSolDB 2.1:

O=C(Nc1c(Cl)cncc1Cl)c1ccc(OC(F)F)c(OCC2CC2)c1
solubility (mole fraction)
Conditions	278.2 K	283.2 K	288.2 K	293.2 K	298.2 K	303.2 K	308.2 K	313.2 K	318.2 K	323.2 K
in 2-butanone	0.000102	0.00013	0.000165	0.000204	0.000264	0.000351	0.000448	0.000586	0.00081	0.00118
in 2-pentanone	7.4e-05	9.8e-05	0.000114	0.00016	0.000219	0.000311	0.000402	0.000551	0.000756	0.00101
in DMF	4e-06	6e-06	8e-06	1.3e-05	1.9e-05	3.1e-05	4.3e-05	6.1e-05	8.6e-05	0.000119
in DMSO	3.3e-05	4.2e-05	6.3e-05	9e-05	0.000132	0.000171	0.000236	0.00033	0.000457	0.000629
in ethanol	6.5e-05	8.8e-05	0.000106	0.00015	0.000208	0.000297	0.000387	0.000533	0.000734	0.000989
in n-butanol	4.5e-05	6.2e-05	7.8e-05	0.000112	0.000156	0.000226	0.000296	0.000411	0.00057	0.000782
in n-propanol	4.9e-05	7.6e-05	9.4e-05	0.000131	0.000175	0.000244	0.000328	0.000455	0.000625	0.000868

Cc1nnc(C(C)C)n1C1C[C@H]2CC[C@@H](C1)N2CC[C@H](NC(=O)C1CCC(F)(F)CC1)c1ccccc1 (stereo not given in full)
solubility (mole fraction)
Conditions	278.2 K	283.2 K	288.2 K	293.2 K	298.2 K	303.2 K	308.2 K	313.2 K	318.2 K	323.2 K
in 2-butanone	0.000179	0.000262	0.000349	0.000491	0.000715	0.00102	0.00137	0.00193	0.00257	0.00351
in 2-pentanone	0.000152	0.000224	0.000296	0.000418	0.000607	0.00087	0.00119	0.00168	0.00229	0.00316
in DMF	3.5e-05	5.6e-05	7.6e-05	0.000112	0.000168	0.000244	0.000341	0.000507	0.000689	0.00101
in DMSO	1.4e-05	2.4e-05	3.7e-05	5.6e-05	8.4e-05	0.000128	0.000173	0.000263	0.000358	0.00053
in ethanol	0.000281	0.000404	0.00052	0.000716	0.00102	0.00144	0.00189	0.00263	0.00344	0.00461
in n-butanol	0.0002	0.000293	0.000383	0.000533	0.000778	0.00112	0.0015	0.00212	0.00282	0.00387
in n-propanol	0.00021	0.00031	0.00042	0.000609	0.00088	0.00124	0.00167	0.00235	0.00311	0.00421
in water	6e-06	9e-06	1.2e-05	1.7e-05	2.5e-05	3.6e-05	4.8e-05	6.9e-05	9.2e-05	0.000129
